Source: patent publication US20090105172A1, “Stabilized Aptamers to PSMA and Their Use as Prostate Cancer Therapeutics” (priority 2005, published 2009)

Target: PSMA NAALADase activity (Homo sapiens, UniProt Q04609)
Assay: NAALADase inhibition assay
Assay type: biochemical
Protocol: These point mutant constructs were assessed for activity in terms of inhibition of PSMA NAALADase activity. The NAALADase assay was performed in 96 well format. PSMA aptamers were serially diluted in 1× reaction buffer (40 mM Tris-HCl, pH 7.4, 0.1 mM ZnSO4, 0.1 mg/in L BSA) in a standard 96 well plate to be tested at a final concentration range from 30 pM to 1 μM. The enzyme was prepared by diluting 30 μL of 100 nM PSMA into 8 mL of reaction buffer, and kept cool on ice. The substrate was prepared by adding 19 μl of NAAG [Glutamate-3,4-^3H], 50.8 Ci/mmol, 19.7 μM (Perkin-Elmer, Wellesley, Mass., NET1082) into 2.2 mL of reaction buffer.
Following preparation of all reagents, 4 μl of each serially diluted aptamer was added to a separate 96 well plate (the reaction plate). 76 μl of diluted enzyme was added to the corresponding wells containing aptamer. 80 μl of reaction buffer was added to one column of wells to serve as a background control. The diluted substrate and reaction plate were then moved to a room at 37° C. and allowed to equilibrate for 10 minutes. After temperature equilibration, 20 μl of the prepared substrate was added to each well using a 12 channel pipet for a final volume of 100 μl/well, and a final concentration of […] enzyme and 30 nM substrate per well. A column of wells containing enzyme and substrate only was used as a high control. The aptamer/enzyme/substrate reaction was incubated at 37° C. for 15 minutes, and stopped by the addition of 100 μl of quench buffer (100 mM sodium phosphate, pH 7.4, 2 mM EDTA).
To separate the cleavage products, […] and Glutamate, from the substrate, an AG 1-X8, 200-400 mesh, formate resin (BioRad, Hercules, Calif., # 140-1454) was used. The resin was prepared by forming a 1:1 slurry in H2O, and adding 140 μl per 96 well using a Multiscreen filter plate (Multiscreen, 1.2 μm filter plates (Millipore, Billerica, Mass., # MABVN1250)). […] The plate was sealed and read using a Packard Topcount Microplate Scintillation Counter. […]

PSMA NAALADase activity, sequence (Q04609 with tags, fused parts or gaps limits assumed): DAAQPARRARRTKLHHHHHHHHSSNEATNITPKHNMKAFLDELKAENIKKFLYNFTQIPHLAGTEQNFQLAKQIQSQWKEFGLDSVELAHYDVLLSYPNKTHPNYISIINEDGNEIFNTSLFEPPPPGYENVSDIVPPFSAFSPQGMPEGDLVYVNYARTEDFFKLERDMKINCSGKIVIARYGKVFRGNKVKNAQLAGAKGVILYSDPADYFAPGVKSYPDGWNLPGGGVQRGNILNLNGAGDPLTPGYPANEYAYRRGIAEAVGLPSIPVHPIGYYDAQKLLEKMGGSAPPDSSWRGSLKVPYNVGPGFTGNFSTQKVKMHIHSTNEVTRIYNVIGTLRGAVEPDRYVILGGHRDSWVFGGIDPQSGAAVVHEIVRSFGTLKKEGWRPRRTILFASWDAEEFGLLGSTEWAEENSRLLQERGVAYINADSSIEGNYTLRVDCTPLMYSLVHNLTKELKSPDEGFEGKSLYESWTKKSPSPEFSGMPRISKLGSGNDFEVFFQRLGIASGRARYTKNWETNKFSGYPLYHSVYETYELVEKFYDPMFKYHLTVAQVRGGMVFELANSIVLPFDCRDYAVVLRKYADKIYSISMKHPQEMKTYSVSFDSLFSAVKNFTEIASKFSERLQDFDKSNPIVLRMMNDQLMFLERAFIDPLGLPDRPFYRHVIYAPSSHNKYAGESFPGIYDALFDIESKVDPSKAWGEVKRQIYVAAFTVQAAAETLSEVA

GGAGGAfCfCGAAAAAGAfCfCfUGAfCfUfUfCfUAfUAfCfUAAGfUfCfUAfCGfUfUfCfCfUfCfCA (GGAGGACCGAAAAAGACCUGACUUCUAUACUAAGUCUACGUUCCUCCA; 2'-fluoro at 7, 8, 17, 18, 19, 22, 23, 24, 25, 26, 28, 30, 31, 35, 36, 37, 39, 41, 42, 43, 44, 45, 46, 47, other sugars and backbone not given here) [ARC591, 48-nt minimer of A9]
IC50 (read-out: apparent IC50, inhibition of NAALADase activity): 6.7 nM
activity in the NAALADase inhibition assay (relative to parent): retained full functional activity
